The numbers were not newly measured in US20250332126A1, “TOPICAL COMPOSITION FOR PAIN RELIEF” (JOHNSON & JOHNSON CONSUMER INC., priority 2022, published 2025), which cites them from elsewhere.

A word on the vapor pressure: it is the equilibrium pressure above the liquid or solid.

The conditions of the data set: at 20° C.

`CC(C)O` [isopropanol]: the vapor pressure is 4.40 kPa.

Take `CO` [methanol]: the vapor pressure is reported as 11.9 kPa.

For `CCO` [ethanol], the vapor pressure is given as 5.95 kPa.
